Experimental findings from ChEMBL document CHEMBL3112400, “Cannabinoid agonists showing BuChE inhibition as potential therapeutic agents for Alzheimer's disease” (Eur J Med Chem, 2014) are described below.

Assay [1] concerns the target T1, Cholinesterase (Homo sapiens, UniProt P06276). The assay can be described thus: Inhibition of human BuChE using butyrylthiocholine as substrate by Ellman's method.
In assay [2] the target is T1, Cholinesterase. In words: Competitive inhibition of BuChE (unknown origin) using butyrylthiocholine as substrate by Lineweaver-Burk double reciprocal plot analysis.
In assay [3] the target is Cannabinoid receptor 1 (Homo sapiens, UniProt P21554). The assay can be described thus: Displacement of [3H]-CP55940 from human CB1 receptor transfected in HEK-293EBNA cells after 90 mins by luminescence counting analysis. The class given is cell-based.
Sequence of Cannabinoid receptor 1 (P21554 whole entry): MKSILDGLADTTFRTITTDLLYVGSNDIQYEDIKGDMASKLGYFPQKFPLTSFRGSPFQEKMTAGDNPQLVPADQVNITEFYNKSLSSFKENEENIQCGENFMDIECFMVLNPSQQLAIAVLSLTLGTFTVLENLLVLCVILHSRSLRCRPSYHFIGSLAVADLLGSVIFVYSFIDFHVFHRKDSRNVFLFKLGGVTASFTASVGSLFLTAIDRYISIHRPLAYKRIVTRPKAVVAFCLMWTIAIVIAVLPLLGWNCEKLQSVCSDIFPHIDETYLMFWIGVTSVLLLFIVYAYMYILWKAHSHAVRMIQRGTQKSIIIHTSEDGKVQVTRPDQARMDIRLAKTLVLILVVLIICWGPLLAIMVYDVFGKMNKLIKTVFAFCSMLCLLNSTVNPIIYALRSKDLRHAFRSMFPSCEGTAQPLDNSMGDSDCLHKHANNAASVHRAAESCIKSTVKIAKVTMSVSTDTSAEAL
Assay [4] has as its target T2, Acetylcholinesterase (Homo sapiens, UniProt P22303). In words: Inhibition of human AChE using acetylthiocholine as substrate by Ellman's method.
The target in assay [5] is Cannabinoid receptor 2 (Homo sapiens, UniProt P34972). The assay can be described thus: Displacement of [3H]-CP55940 from human CB2 receptor transfected in HEK-293EBNA cells after 90 mins by luminescence counting analysis. The class given is cell-based.
Sequence of Cannabinoid receptor 2 (P34972 whole entry): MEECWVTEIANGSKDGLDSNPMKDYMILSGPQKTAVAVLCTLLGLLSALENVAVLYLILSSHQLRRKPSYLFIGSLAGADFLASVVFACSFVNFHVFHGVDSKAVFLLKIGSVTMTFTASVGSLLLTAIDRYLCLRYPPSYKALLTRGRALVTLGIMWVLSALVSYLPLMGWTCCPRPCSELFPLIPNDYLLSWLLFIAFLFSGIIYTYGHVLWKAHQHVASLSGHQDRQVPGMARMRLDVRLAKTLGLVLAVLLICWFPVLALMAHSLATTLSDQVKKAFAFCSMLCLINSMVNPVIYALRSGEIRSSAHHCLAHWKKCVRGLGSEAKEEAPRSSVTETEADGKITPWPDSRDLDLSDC
Assay [6] addresses Cholinesterase (Equus caballus, UniProt P81908). In words: Inhibition of horse serum BuChE using butyrylthiocholine as substrate by Ellman's method.
The target in assay [7] is Cannabinoid receptor 1 (Mus musculus) (UniProt P47746). In words: Agonist activity at CB1 receptor in ICR mouse vas deferens assessed as inhibition of electrically induced contractile response at 10^-7 to 2 X 10^-5 M after 10 mins.
Sequence of Cannabinoid receptor 1 (Mus musculus) (P47746 whole entry): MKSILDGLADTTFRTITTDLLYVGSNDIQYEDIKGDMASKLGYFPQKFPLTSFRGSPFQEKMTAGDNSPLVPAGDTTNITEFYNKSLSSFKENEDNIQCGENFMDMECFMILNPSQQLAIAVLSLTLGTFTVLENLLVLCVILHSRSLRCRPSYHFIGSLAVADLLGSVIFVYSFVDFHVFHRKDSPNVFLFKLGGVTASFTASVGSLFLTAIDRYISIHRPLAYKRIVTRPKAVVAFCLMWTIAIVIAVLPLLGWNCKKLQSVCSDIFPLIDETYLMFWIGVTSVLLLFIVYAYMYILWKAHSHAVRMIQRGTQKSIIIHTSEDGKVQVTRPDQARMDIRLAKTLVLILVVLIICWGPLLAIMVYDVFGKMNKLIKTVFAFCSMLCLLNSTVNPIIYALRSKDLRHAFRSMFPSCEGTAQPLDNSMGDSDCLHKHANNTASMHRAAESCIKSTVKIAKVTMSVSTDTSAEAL
Assay [8] is described as follows: Antioxidant activity in phosphate buffer after 15 mins by ORAC-FL method relative to trolox. Type of assay: functional.
Assay [9] addresses T3, Cannabinoid receptor (Mus musculus) (UniProt P47746+P47936). The assay can be described thus: Agonist activity at CB1/CB2 receptor in ICR mouse vas deferens assessed as inhibition of electrically induced contractile response at 2.7 X 10^-6 M after 10 mins in presence of AM251 and AM630. The class given is […].
The target in assay [10] is T3, Cannabinoid receptor (Mus musculus). The assay can be described thus: Agonist activity at CB1/CB2 receptor in ICR mouse vas deferens assessed as inhibition of electrically induced contractile response at 2.7 X 10^-6 M after 10 mins in presence of AM251. The class given is […].
In assay [11] the target is Cannabinoid receptor 1 (Mus musculus) (UniProt P47746). In words: Agonist activity at CB1 receptor in ICR mouse vas deferens assessed as inhibition of electrically induced contractile response after 10 mins.
Assay [12] has as its target T1, Cholinesterase. The assay can be described thus: Mixed-type inhibition of BuChE (unknown origin) using butyrylthiocholine as substrate by Lineweaver-Burk double reciprocal plot analysis.
Assay [13] addresses T1, Cholinesterase. In words: Noncompetitive inhibition of BuChE (unknown origin) using butyrylthiocholine as substrate by Lineweaver-Burk double reciprocal plot analysis.
For assay [14], the target named is T2, Acetylcholinesterase. In words: Competitive inhibition of AChE (unknown origin) by Lineweaver-Burk double reciprocal plot analysis.

Activity calls are given as the source filed them. The rule behind the calls is not given here. A value given as a limit tells only on which side of the number the result lay.

T2 sequence (P22303 whole entry): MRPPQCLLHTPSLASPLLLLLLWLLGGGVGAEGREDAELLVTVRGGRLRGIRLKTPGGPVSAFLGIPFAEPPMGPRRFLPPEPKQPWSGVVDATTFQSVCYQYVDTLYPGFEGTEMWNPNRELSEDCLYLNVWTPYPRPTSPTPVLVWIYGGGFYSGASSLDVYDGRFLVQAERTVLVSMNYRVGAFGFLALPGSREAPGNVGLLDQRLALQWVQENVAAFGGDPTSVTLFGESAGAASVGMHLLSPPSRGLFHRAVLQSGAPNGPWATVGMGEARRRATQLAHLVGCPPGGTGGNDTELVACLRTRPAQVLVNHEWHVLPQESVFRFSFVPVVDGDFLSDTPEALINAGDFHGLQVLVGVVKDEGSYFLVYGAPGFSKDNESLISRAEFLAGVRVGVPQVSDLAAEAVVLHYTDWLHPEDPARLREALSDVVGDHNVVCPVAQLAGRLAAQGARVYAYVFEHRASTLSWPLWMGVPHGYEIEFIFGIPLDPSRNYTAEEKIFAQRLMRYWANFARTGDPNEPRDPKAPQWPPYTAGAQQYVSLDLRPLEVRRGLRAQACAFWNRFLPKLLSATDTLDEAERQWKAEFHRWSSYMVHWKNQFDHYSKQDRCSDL
Sequence of Cholinesterase (Equus caballus, UniProt P81908) (P81908 whole entry): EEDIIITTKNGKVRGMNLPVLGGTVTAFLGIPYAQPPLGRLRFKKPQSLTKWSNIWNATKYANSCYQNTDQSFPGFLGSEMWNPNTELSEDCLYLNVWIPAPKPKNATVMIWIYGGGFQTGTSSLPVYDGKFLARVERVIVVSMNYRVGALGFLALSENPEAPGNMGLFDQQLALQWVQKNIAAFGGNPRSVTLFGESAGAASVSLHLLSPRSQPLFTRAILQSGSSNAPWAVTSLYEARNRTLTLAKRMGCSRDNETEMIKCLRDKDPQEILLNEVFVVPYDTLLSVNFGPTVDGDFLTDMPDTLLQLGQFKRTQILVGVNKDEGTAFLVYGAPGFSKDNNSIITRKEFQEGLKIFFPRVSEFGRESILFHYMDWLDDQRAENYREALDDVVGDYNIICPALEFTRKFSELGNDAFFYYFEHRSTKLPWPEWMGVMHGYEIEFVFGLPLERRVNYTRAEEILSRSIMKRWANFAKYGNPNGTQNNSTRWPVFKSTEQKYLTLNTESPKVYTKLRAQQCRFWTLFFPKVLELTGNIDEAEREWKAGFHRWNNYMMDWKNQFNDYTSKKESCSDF
T1 sequence (P06276 whole entry): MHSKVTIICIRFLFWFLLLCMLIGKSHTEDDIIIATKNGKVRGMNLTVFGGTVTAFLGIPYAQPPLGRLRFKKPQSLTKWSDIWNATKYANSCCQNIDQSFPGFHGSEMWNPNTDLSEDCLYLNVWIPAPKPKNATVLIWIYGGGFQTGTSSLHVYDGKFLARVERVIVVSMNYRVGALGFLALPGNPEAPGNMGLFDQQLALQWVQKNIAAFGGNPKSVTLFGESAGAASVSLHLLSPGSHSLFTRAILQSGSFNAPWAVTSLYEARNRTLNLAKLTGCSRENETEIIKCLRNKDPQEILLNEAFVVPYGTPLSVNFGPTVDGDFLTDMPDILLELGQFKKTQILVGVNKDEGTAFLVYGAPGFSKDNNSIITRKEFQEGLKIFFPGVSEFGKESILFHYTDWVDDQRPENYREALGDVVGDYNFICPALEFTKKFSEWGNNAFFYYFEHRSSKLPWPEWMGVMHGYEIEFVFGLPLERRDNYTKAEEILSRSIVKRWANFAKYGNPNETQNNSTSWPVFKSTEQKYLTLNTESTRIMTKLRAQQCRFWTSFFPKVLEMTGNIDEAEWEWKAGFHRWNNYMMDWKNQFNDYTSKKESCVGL
T3 sequence (P47746 whole entry, looked up): as the sequence (P47746 whole entry) above
T3 sequence (P47936 whole entry, looked up): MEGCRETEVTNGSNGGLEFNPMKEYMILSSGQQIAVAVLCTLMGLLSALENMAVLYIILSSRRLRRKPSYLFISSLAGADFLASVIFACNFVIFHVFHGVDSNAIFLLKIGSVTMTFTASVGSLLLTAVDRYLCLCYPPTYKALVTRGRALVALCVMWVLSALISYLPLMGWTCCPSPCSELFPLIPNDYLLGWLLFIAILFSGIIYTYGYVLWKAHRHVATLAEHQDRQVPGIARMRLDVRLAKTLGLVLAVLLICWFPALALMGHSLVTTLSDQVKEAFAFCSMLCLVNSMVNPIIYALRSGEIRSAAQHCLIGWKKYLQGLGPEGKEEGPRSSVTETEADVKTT

With `Brc1ccc2c(c1)c(OCc1ccc3ccccc3c1)nn2CCN1CCCCC1`, the results for the IC50 in assay [1] and in [4] were 190 nM and > 10000 nM, respectively. Moreover, the Ki in assay [2] was found to be 79 nM; in assay [3] it was 1700 nM; in assay [5], 1800 nM.

`O=[N+]([O-])c1ccc2c(c1)c(OCc1ccc3ccccc3c1)nn2Cc1ccccc1`: the IC50 is > 10000 nM in assay [6], > 10000 nM in assay [1] and 6300 nM in [4]. Moreover, the inhibition constant (Ki) was > 10000 nM in assay [3] and 400 nM in assay [5].

With `c1ccc2c(COc3nn(CCN4CCCC4)c4ccccc34)cccc2c1`, the IC50 in [6] is 6700 nM; in [1] it was 2830 nM; in assay [4], > 10000 nM. Further, the Ki in assay [2] is 1200 nM; in assay [3], 560 nM; in assay [5], 400 nM. Moreover, the inhibition result in assay [7], in assay [9] and in [10] was “Active” each time. For the same compound, the Ratio in [8] is 0.7. Also, the inhibition result in assay [11] is “Dose-dependent effect”.

Turning to `O=[N+]([O-])c1ccc2c(c1)c(OCc1cccc3ccccc13)nn2CCN1CCCC1`, the figures for the IC50 in assay [1] and in [4] were 4500 nM and > 25000 nM, respectively. Moreover, the Ki in assay [2] came to 2100 nM; in assay [3], 600 nM; in assay [5] it was 130 nM. Also, the inhibition result in [11] was “Dose-dependent effect”.

Take `Nc1ccc2c(c1)c(OCc1ccc3ccccc3c1)nn2CCN1CCCCC1`: the IC50 in [6] was 1500 nM; in assay [4] it was > 10000 nM. In assay [7], the inhibition entry is “Active”. Also, the figures for the inhibition constant Ki in assay [3], in assay [12] and in [5] were > 40000 nM, 380 nM and 2000 nM, respectively. Moreover, the Ratio in assay [8] was 0.8. Further, the inhibition entry in assay [9] and in [10] was “inactive” throughout. Moreover, the inhibition entry in assay [11] is “Dose-dependent effect”.

In the case of `Nc1ccc2c(c1)c(OCc1cccc3ccccc13)nn2CCN1CCCC1`, the IC50 in [1] is 3000 nM; in assay [4] it was > 25000 nM. Besides, the Ki in [2] was 1000 nM; in assay [3], 11000 nM; in [5], 5000 nM. For the same compound, the inhibition entry in assay [7], in assay [9] and in assay [10] was “Active” throughout. Also, the Ratio in assay [8] was found to be 1.3. Also, the inhibition result in assay [11] is “Dose-dependent effect”.

With `c1ccc(COc2nn(Cc3ccccc3)c3ccccc23)cc1`, the IC50 is > 25000 nM in assay [1] and 2900 nM in assay [4]. The Ki in assay [3] was found to be 2600 nM; in assay [5] it was 3510 nM.

Take `CCCCCOc1nn(CCCCC)c2ccc([N+](=O)[O-])cc12`: the IC50 in assay [6] was > 10000 nM; in assay [1] it was > 10000 nM; in assay [4], 4200 nM. For the same compound, the results for the Ki in [3] and in assay [5] were 1300 nM and 680 nM, respectively.

As to `CCCCCn1nc(OCc2ccc3ccccc3c2)c2cc([N+](=O)[O-])ccc21`, the IC50 in assay [6] was > 10000 nM; in [1], > 10000 nM; in assay [4], 8200 nM. In addition, the inhibitory constant (Ki) in assay [3] is 1600 nM; in assay [5] it was 1370 nM.

On to `Nc1ccc2c(c1)c(OCc1ccccc1)nn2Cc1ccccc1`, for which the IC50 in assay [6] and in assay [1] was > 10000 nM each time. Further, the Ki in assay [3] was 4000 nM; in assay [5], 1600 nM.

On to `COc1ccc(COc2nn(CCN(C(C)C)C(C)C)c3ccc([N+](=O)[O-])cc23)cc1`, for which the IC50 in assay [1] is > 100000 nM; in assay [4], 91000 nM. The Ki in [3] is > 40000 nM; in assay [5] it was 9000 nM.

Turning to `c1ccc2c(c1)c(OCC1CCCCC1)nn2CC1CCCCC1`, the IC50 is > 10000 nM in [6], > 10000 nM in assay [1] and 7100 nM in assay [4]. Also, the Ki worked out at 200 nM in assay [3] and 1300 nM in [5].

As to `O=[N+]([O-])c1ccc2c(c1)c(OCc1ccc3ccccc3c1)nn2Cc1ccc2ccccc2c1`, the 50% inhibitory concentration (IC50) in assay [6], in [1] and in assay [4] was > 10000 nM throughout. Moreover, the Ki in assay [3] and in assay [5] was > 10000 nM throughout.

For `Cc1c(C(=O)c2cccc3ccccc23)c2cccc3c2n1[C@H](CN1CCOCC1)CO3`, the inhibition entry in [7] is “Active”.

In the case of `c1ccc2c(COc3nn(Cc4cccc5ccccc45)c4ccccc34)cccc2c1`, the half-maximal inhibitory concentration (IC50) in [1] and in [4] was > 10000 nM throughout. The inhibitory constant (Ki) in [3] and in assay [5] was > 10000 nM throughout.

On to `O=[N+]([O-])c1ccc2c(c1)c(OCc1ccc3ccccc3c1)nn2CCN1CCOCC1`, for which the IC50 in assay [6], in assay [1] and in assay [4] was > 10000 nM each time. Besides, the Ki in [3] was 1380 nM; in assay [5], 500 nM.

As for `O=[N+]([O-])c1ccc2c(c1)c(OCc1cccc3ccccc13)nn2Cc1cccc2ccccc12`, the IC50 in assay [1] is > 10000 nM; in assay [4], 6700 nM. For the same compound, the figures for the Ki in assay [3] and in assay [5] were 3800 nM and 240 nM, respectively.

Consider `O=[N+]([O-])c1ccc2c(c1)c(OCC1CCCCC1)nn2Cc1ccccc1`, for which the IC50 in assay [6], in assay [1] and in assay [4] was > 10000 nM in each case. Besides, the values for the inhibition constant (Ki) in assay [3] and in assay [5] were > 40000 nM and 90 nM, respectively. This compound registered an inhibition in assay [3] of 39%.

With `c1ccc2cc(COc3nn(CCN4CCCCC4)c4ccccc34)ccc2c1`, the IC50 was 1400 nM in [6], 970 nM in assay [1] and > 10000 nM in [4]. Moreover, the inhibition result in [7] was “Active”. Moreover, the results for the Ki in assay [3], in assay [13] and in assay [5] were 1400 nM, 1190 nM and 2000 nM, respectively. In assay [8], the Ratio was determined as 0.5. The inhibition result in [9] and in assay [10] was “inactive” throughout. Moreover, the inhibition entry in [11] is “Dose-dependent effect”.

Consider `COc1ccc(COc2nn(Cc3ccc(OC)cc3)c3ccccc23)cc1`, for which the half-inhibitory concentration (IC50) in assay [6], in assay [1] and in assay [4] was > 10000 nM throughout. The Ki came to 2400 nM in assay [3] and 900 nM in assay [5].

`c1ccc2c(COc3nn(CCN4CCCCC4)c4ccccc34)cccc2c1`: the IC50 in assay [6] was 910 nM; in [1] it was 810 nM; in assay [4] it was > 10000 nM. Besides, the figures for the Ki in assay [2], in assay [3] and in [5] were 220 nM, 3000 nM and 240 nM, respectively. For the same compound, the inhibition result in [7], in [9], in assay [10] and in assay [14] was “Active” each time. Also, the Ratio in assay [8] was 0.5. In assay [11], the inhibition result is “Dose-dependent effect”.

As for `CCCCCn1nc(OCc2ccc(OC)cc2)c2cc([N+](=O)[O-])ccc21`, the IC50 is > 10000 nM in assay [6], > 10000 nM in assay [1] and 9700 nM in assay [4]. Further, the Ki in assay [3] came out at 800 nM; in assay [5], 490 nM.

On to `CC(C)N(CCn1nc(OCc2cccc3ccccc23)c2ccccc21)C(C)C`, for which the IC50 was 100 nM in [1] and > 10000 nM in [4]. Moreover, the Ki in [2] is 28 nM; in [3], > 40000 nM; in assay [5] it was 5400 nM. In addition, the inhibition result in assay [14] is “Active”.

As for `O=[N+]([O-])c1ccc2c(c1)c(OCc1ccc3ccccc3c1)nn2CCN1CCCCC1`, the half-maximal inhibitory concentration (IC50) in assay [6] was 2070 nM; in [1], 3600 nM; in [4], > 10000 nM. Further, the Ki in assay [3] amounted to 1300 nM; in [12] it was 2900 nM; in assay [5], 500 nM.

Consider `COc1ccc(COc2nn(CCN(C(C)C)C(C)C)c3ccccc23)cc1`, for which the IC50 was 2280 nM in [6], 4800 nM in [1] and > 10000 nM in [4]. Also, the Ki is > 40000 nM in assay [3], 2600 nM in assay [13] and 7700 nM in assay [5]. Further, the Ratio in assay [8] worked out at 1. The inhibition entry in assay [9] and in assay [10] was “inactive” in each case. Besides, the inhibition entry in assay [11] is “Dose-dependent effect”.

On to `O=[N+]([O-])c1ccc2c(c1)c(OCc1ccccc1)nn2Cc1ccccc1`, for which the concentration for half-maximal inhibition (IC50) in assay [6] was > 10000 nM; in assay [1] it was > 10000 nM; in assay [4], 7300 nM. Besides, the Ki in assay [3] is 1200 nM; in assay [5] it was 400 nM.
